These results are taken from patent US10028992B2, “Methods of treating muscular dystrophy” (BOARD OF REGENTS OF THE NEVADA SYSTEM OF HIGHER EDUCATION …, priority 2012, dated 2018).

The assay concerns α7 integrin promoter. The assay can be described thus: muscle cell-based assay: α7βgal+/− myoblasts/myotubes, LacZ reporter, β-galactosidase cleavage of FDG. The following applies: Myotubes; for Results in a α7+/− β-galactosidase assay, Myotubes, 0.5 uM: compound at 0.5 uM; for Results in a α7+/− β-galactosidase assay, Myotubes, 1 uM: compound at 1 uM; for Results in a α7+/− β-galactosidase assay, Myotubes, 5 uM: compound at 5 uM; for Results in a α7+/− β-galactosidase assay, Myotubes, 10 uM: compound at 10 uM; for Results in a α7+/− β-galactosidase assay, Myotubes, 20 uM: compound at 20 uM; for Results in a α7+/− β-galactosidase assay, Myotubes, 40 uM: compound at 40 uM. The arrangement: species or system mouse. The gist of the method: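 Primary α7βgal+/− mouse myoblasts (LacZ knocked into α7 integrin exon 1, promoter retained), differentiated; promoter activity read as β-galactosidase conversion of non-fluorescent FDG to fluorescein. Hits followed by dose-response, western analysis and myostatin counterscreen.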

As for `N#C/C(=C/c1ccc(N2CCOCC2)o1)C(=O)Nc1ccccc1` [drawing 437], the “Results in a α7+/− β-galactosidase assay, Myotubes, 0.5 uM” value (from here on “Results … 0.5 uM”) is −0.01316; the “Results in a α7+/− β-galactosidase assay, Myotubes, 1 uM” value (from here on “Results … 1 uM”) is reported as 0.1058; the “Results in a α7+/− β-galactosidase assay, Myotubes, 5 uM” value (“Results … Myotubes, 5 uM” below) is reported as −0.1378; the “Results in a α7+/− β-galactosidase assay, Myotubes, 10 uM” value (shortened to “Results … 10 uM”) is −0.06524. Moreover, the “Results in a α7+/− β-galactosidase assay, Myotubes, 20 uM” value (from here on “Results … 20 uM”) was 0.007978 and the “Results in a α7+/− β-galactosidase assay, Myotubes, 40 uM” value (“Results … 40 uM” for short) is recorded as −0.03236.
Take `CCOc1ccccc1Nc1cc2n(c(=O)n1)CCc1cc(OC)c(OC)cc1-2` [drawing 438]: the “Results … 0.5 uM” value worked out at 0.06921; the “Results … 1 uM” value was 0.1295; the “Results … Myotubes, 5 uM” value is −0.255; the “Results … 10 uM” value was −0.3585. The “Results … 20 uM” value was −0.1938 and the “Results … 40 uM” value is −0.1921.
Take `CCOc1ccccc1NC(=O)COC(=O)CNS(=O)(=O)c1ccc(C)cc1` [drawing 440]: the “Results … 0.5 uM” value is listed as −0.09293; the “Results … 1 uM” value was 0.0165; the “Results … Myotubes, 5 uM” value is given as −0.2547; the “Results … 10 uM” value was −0.2483. The “Results … 20 uM” value was −0.1393 and the “Results … 40 uM” value is given as −0.07634.
Take `Fc1ccc(-c2ccnc3nc(N4CCN(c5ccccc5)CC4)nn23)cc1` [drawing 441]: the “Results … 0.5 uM” value amounted to 0.1617; the “Results … 1 uM” value stood at 0.1989; the “Results … Myotubes, 5 uM” value is listed as 0.08445; the “Results … 10 uM” value stood at 0.3037. Besides, the “Results … 20 uM” value was −0.1429 and the “Results … 40 uM” value turned out to be 0.1756.
Take `CCOc1cc2c3c(c1)C(C)=CC(C)(C)N3C(=O)C2=O` [drawing 442]: the “Results … 0.5 uM” value worked out at 0.1339; the “Results … 1 uM” value came to 0.05498; the “Results … Myotubes, 5 uM” value is recorded as −0.2641; the “Results … 10 uM” value is listed as −0.2882. In addition, the “Results … 20 uM” value is listed as −0.3067 and the “Results … 40 uM” value is listed as −0.3705.
Turning to `COc1ccc2c(c1)/C(=C\c1cccc(/C=C3/C(=O)Nc4ccc(OC)cc43)n1)C(=O)N2` [drawing 443], the “Results … 0.5 uM” value was −0.1407; the “Results … 1 uM” value is −0.2351; the “Results … Myotubes, 5 uM” value is listed as −0.5201; the “Results … 10 uM” value is −0.5078. Besides, the “Results … 20 uM” value is listed as −0.5433 and the “Results … 40 uM” value is −0.6161.
Take `C/C(=N\NC(=O)c1cc(C)oc1C)c1ccc2ccccc2c1` [drawing 444]: the “Results … 0.5 uM” value is on record as −0.05394; the “Results … 1 uM” value is given as −0.1247; the “Results … Myotubes, 5 uM” value is 0.2514; the “Results … 10 uM” value is on record as −0.05957. Also, the “Results … 20 uM” value is listed as −0.1231 and the “Results … 40 uM” value is on record as −0.2807.
Take `O=C1Nc2ccccc2/C1=C\c1cccn1-c1ccc(OC(F)(F)F)cc1` [drawing 445]: the “Results … 0.5 uM” value stood at 0.0705; the “Results … 1 uM” value was found to be 0.06007; the “Results … Myotubes, 5 uM” value was determined as 0.1996; the “Results … 10 uM” value is −0.05189. The “Results … 20 uM” value is on record as −0.1444 and the “Results … 40 uM” value is −0.2888.
As to `NS(=O)(=O)c1ccc(NC(=O)CN2CCc3ccccc32)cc1` [drawing 446], the “Results … 0.5 uM” value is on record as −0.03601; the “Results … 1 uM” value is −0.07498; the “Results … Myotubes, 5 uM” value came to 0.1476; the “Results … 10 uM” value is recorded as −0.1666. The “Results … 20 uM” value is −0.05843 and the “Results … 40 uM” value was −0.06764.
As for `CC(=O)C1=C(C)Nc2ncnn2C1c1ccc(C)cc1` (stereo not drawn) [drawing 447], the “Results … 0.5 uM” value is listed as 0.06012; the “Results … 1 uM” value is −0.01856; the “Results … Myotubes, 5 uM” value stood at 0.152; the “Results … 10 uM” value was −0.155. The “Results … 20 uM” value is recorded as −0.1763 and the “Results … 40 uM” value is −0.08699.
Turning to `COc1ccc(OC)c(S(=O)(=O)Nc2c(NC3CCCCC3)c3ccccc3oc2=O)c1` [drawing 448], the “Results … 0.5 uM” value amounted to 0.01269; the “Results … 1 uM” value is recorded as −0.0336; the “Results … Myotubes, 5 uM” value is 0.04486; the “Results … 10 uM” value is −0.2638. Further, the “Results … 20 uM” value is given as −0.05892 and the “Results … 40 uM” value is −0.2063.
Consider `CC(=O)Nc1ccc(NC(=O)C/C(C)=N/NC(=O)COc2cc(C)c(Br)cc2Br)cc1` [drawing 449], for which the “Results … 0.5 uM” value is given as −0.08286; the “Results … 1 uM” value was −0.1235; the “Results … Myotubes, 5 uM” value is reported as −0.2507; the “Results … 10 uM” value was −0.3124. In addition, the “Results … 20 uM” value is on record as −0.1128 and the “Results … 40 uM” value is listed as −0.2976.
For the molecule `Cc1cccc(Cn2cnc3c(nnn3Cc3ccc(Cl)cc3)c2=O)c1` [drawing 450], the “Results … 0.5 uM” value is given as 0.04908; the “Results … 1 uM” value was −0.01328; the “Results … Myotubes, 5 uM” value was −0.09823; the “Results … 10 uM” value is −0.3107. Besides, the “Results … 20 uM” value is listed as −0.1707 and the “Results … 40 uM” value is given as −0.1775.
With `CCOc1ccc(Br)cc1S(=O)(=O)Nc1ccc(C(=O)Nc2ccccc2OC)cc1` [drawing 451], the “Results … 0.5 uM” value worked out at 0.1091; the “Results … 1 uM” value is on record as 0.02499; the “Results … Myotubes, 5 uM” value is on record as −0.02123; the “Results … 10 uM” value is −0.1229. Moreover, the “Results … 20 uM” value was −0.2419 and the “Results … 40 uM” value is given as −0.2407.
In the case of `O=C(NCc1ccccc1)c1csc(-c2cccnc2)n1` [drawing 452], the “Results … 0.5 uM” value is given as −0.05273; the “Results … 1 uM” value is reported as −0.1614; the “Results … Myotubes, 5 uM” value came to 0.1395; the “Results … 10 uM” value worked out at 0.1693. The “Results … 20 uM” value came to 0.05975 and the “Results … 40 uM” value is −0.1073.
Take `O=C1C2CCCN2C(=O)N1CCCN1CCN(c2cccc(Br)c2)CC1` (stereo not drawn) [drawing 453]: the “Results … 0.5 uM” value is listed as −0.101; the “Results … 1 uM” value was −0.07437; the “Results … Myotubes, 5 uM” value was −0.1132; the “Results … 10 uM” value was determined as 0.07677. The “Results … 20 uM” value was −0.1243 and the “Results … 40 uM” value was 0.1476.
On to `C=CCc1c(C)nc(-c2ccccc2)nc1N/N=C(\C)c1ccc(N)cc1` [drawing 454], for which the “Results … 0.5 uM” value is −0.04135; the “Results … 1 uM” value was −0.05977; the “Results … Myotubes, 5 uM” value is recorded as −0.2067; the “Results … 10 uM” value is 0.05284. Further, the “Results … 20 uM” value was −0.1823 and the “Results … 40 uM” value is listed as 0.1021.
Regarding `CC(C)(C)c1csc(NC(=O)c2cccnc2)n1` [drawing 455], the “Results … 0.5 uM” value is −0.1018; the “Results … 1 uM” value is listed as −0.04907; the “Results … Myotubes, 5 uM” value came to 0.01472; the “Results … 10 uM” value is 0.1276. Moreover, the “Results … 20 uM” value was −0.2798 and the “Results … 40 uM” value was −0.144.
With `Cc1ccccc1/C=C1\C(=O)Nc2ccc(F)cc21` [drawing 456], the “Results … 0.5 uM” value turned out to be 0.008769; the “Results … 1 uM” value is on record as −0.01895; the “Results … Myotubes, 5 uM” value was −0.02208; the “Results … 10 uM” value was 0.1345. Moreover, the “Results … 20 uM” value is recorded as −0.1202 and the “Results … 40 uM” value turned out to be 0.009496.
In the case of `Cc1ccc2c(c1)/C(=C/c1ccccc1)C(=O)N2` [drawing 457], the “Results … 0.5 uM” value is given as −0.1541; the “Results … 1 uM” value was −0.09775; the “Results … Myotubes, 5 uM” value was −0.09703; the “Results … 10 uM” value worked out at 0.151. The “Results … 20 uM” value is listed as −0.411 and the “Results … 40 uM” value is −0.4149.
